Where “and” joins values, the source holds several entries; their conditions need not be identical. Equal entries are not always repeated.
Assays:
rats fed a 35% fat diet = test system: rats fed a 35% fat diet; parameters: method as in PMID 25857225; settings: cited from earlier work
HFD-fed ob/ob mice = HFD-fed ob/ob mice study; type: in vivo, mouse
Method: Male ob/ob mice were fed an HFD (D12451; Research Diets, Inc.) from 8 weeks of age to the end of the study. After 2 weeks of HFD feeding, the mice were divided into groups based on their body weight, food intake, glycated hemoglobin (GHb), and plasma biochemical parameters. […] Compounds were suspended in 0.5% methylcellulose. Body weight and food intake were monitored during the study. On day 34, blood was collected and GHb and plasma biochemical parameters were measured. In addition, body composition was analyzed by EchoMRI‐900 (Hitachi Aloka Medical, Ltd., Tokyo, Japan). On day 36, the mice in the vehicle‐ and CpdB‐treated group were individually placed in the metabolic chamber of an Oxymax system (Columbus Instruments, Columbus, OH, USA). After 3 h of adaptation, oxygen consumption (VO2) and carbon dioxide production (VCO2) were analyzed for 22 h (from 13:00 to 11:00). During the measurement, dosing of vehicle or CpdB was performed at 18:00. Respiratory quotient (RQ) and energy expenditure (EE) were calculated with the following formulas: RQ=VCO2/VO2 EEkcal/h=3.815+1.232×VCO2/VO2×VO2
Blood samples were collected from the tail or facial vein without anesthesia and centrifuged at 1500 g for 10 min at 4 °C to isolate the plasma. To prevent degradation of incretin hormone, blood samples were treated with not only heparin/aprotinin but also a dipeptidyl peptidase‐4 (DPP‐4) inhibitor. Plasma alanine aminotransferase […] levels were measured by an Autoanalyzer 7180 (Hitachi High‐Technologies Corporation, Tokyo, Japan). GHb was measured with an automated GHb analyzer (HLC‐723G8; Tosoh, Tokyo, Japan). Plasma insulin was measured with an ELISA kit (Shibayagi Co., Ltd., Gunma, Japan). Plasma levels of total GLP‐1 and total PYY were also measured with an ELISA kit (Wako Pure Chemicals).

rats = test system: rats; parameters: method as in PMID 22301859; settings: cited from earlier work
C57BL/6J mice = assay: Food choice test (HFD vs LFD); type: in vivo, mouse; settings: overnight, CpdB 10 mg/kg oral, liraglutide 0.04 mg/kg sc
Method: The choice between HFD (D12451; Research Diets, Inc.) and low‐fat diet (LFD, 10% kcal fat, 3.8 kcal·g^−1; D124510B; Research Diets, Inc.) was assessed in C57BL/6J mice. Following habituation to normal chow, HFD and LFD were presented in separate containers simultaneously, and overnight food intake of each diet was monitored. The mice were divided into groups based on the data of food intake and body weight. Then, vehicle or CpdB (10 mg·kg^−1) was orally administered, and the overnight food intake of each diet was monitored. CpdB was suspended in 0.5% methylcellulose. As a positive control, liraglutide (0.04 mg·kg^−1) dissolved in 10% DMSO/saline was subcutaneously administered.

[1] = CpdB 30 mg/kg, pioglitazone 3 mg/kg oral once daily, mean
[2] = CpdB 30 mg/kg, pioglitazone 3 mg/kg oral once daily, single animal values
[3] = EchoMRI, day 34, CpdB 30 mg/kg, pioglitazone 3 mg/kg, mean
[4] = EchoMRI, day 34, CpdB 30 mg/kg, pioglitazone 3 mg/kg, single animal values
[5] = day 34, CpdB 30 mg/kg, pioglitazone 3 mg/kg oral once daily, mean ± SD, n=8

## CC(C)(C)c1cc(C(C)(C)C)nc(N2CCn3c(nnc3-c3ccc(OC(F)(F)F)cc3)C2)n1 [JTP‐103237]
Rats fed a 35% fat diet
  increase of plasma levels of PYY after lipid loading: enhance the increase

## CCc1ccc(CCOc2ccc(CC3SC(=O)NC3=O)cc2)nc1 (stereo not shown) [Pioglitazone, pioglitazone, reference compound]
HFD-fed ob/ob mice; [1]
  Body weight change from initial, AVE: 30.48%
  Cumulative food intake, AVE: 136.37 g
HFD-fed ob/ob mice; [2]
  Body weight change from initial, individual animal: 29.04% and 29.60% and 25.91% and 30.72% and 29.56% and 32.63% and 37.29%
  Cumulative food intake, individual animal: 144.84 g and 134.34 g and 122.14 g and 143.74 g and 138.07 g and 136.64 g and 133.11 g and 138.10 g
HFD-fed ob/ob mice; [3]
  Body composition, Fat, AVE: 63.35%
  Body composition, Lean, AVE: 36.65%
HFD-fed ob/ob mice; [4]
  Body composition, Fat, individual animal: 62.74% and 63.31% and 66.38% and 62.25% and 63.50% and 61.77% and 61.53% and 65.34%
  Body composition, Lean, individual animal: 33.62% and 37.75% and 36.50% and 38.23% and 38.47% and 37.26% and 36.69%
HFD-fed ob/ob mice; before dosing, mean ± SD, n=8
  GHb, Pre: 5.9 ± 0.3%
  Plasma AST, Pre: 314 ± 61 U·L^−1
  Plasma insulin, Pre: 103 ± 29 ng/mL
HFD-fed ob/ob mice; change 34 days after repeated dosing, CpdB 30 mg/kg, pioglitazone 3 mg/kg oral once daily, mean
  ΔGHb, AVE: -1.01%
HFD-fed ob/ob mice; change 34 days after repeated dosing, CpdB 30 mg/kg, pioglitazone 3 mg/kg, single animal values
  ΔGHb, individual animal: -1.00% and -0.90% and -1.10% and -1.40% and -0.70% and -0.80%
HFD-fed ob/ob mice; [5]
  GHb, Post: 4.9 ± 0.4 %
  Plasma ALT, Post: 803 ± 132 U·L^−1
  Plasma AST, Post: 733 ± 174 U·L^−1
HFD-fed ob/ob mice; day 34, CpdB 30 mg/kg, pioglitazone 3 mg/kg oral once daily, nonfasting, mean ± SD, n=8
  Plasma insulin, Post: 30.8 ± 16 ng/mL

## Liraglutide
rats
  intake of highly palatable diet: predominantly reduce the intake of highly palatable diet
C57BL/6J mice; mean, N=5
  Food intake, energy intake of HFD, AVE: 6.46 kcal
  Food intake, energy intake of low-fat diet, AVE: 0.24 kcal
  Food intake, total energy intake, AVE: 6.69 kcal
C57BL/6J mice; single animal values
  Food intake, energy intake of HFD, individual animal: 6.02 kcal and 8.08 kcal and 6.16 kcal and 4.18 kcal and 7.85 kcal
  Food intake, energy intake of low-fat diet, individual animal: 0.00 kcal and 0.19 kcal and 0.34 kcal and 0.27 kcal and 0.38 kcal
  Food intake, total energy intake, individual animal: 6.02 kcal and 8.27 kcal and 6.50 kcal and 4.45 kcal and 8.23 kcal

— publication PMC7050258, “Inhibition of MGAT2 modulates fat‐induced gut peptide release and fat intake in normal mice and ameliorates obesity and diabetes in ob/ob mice fed on a high‐fat diet” (FEBS Open Bio, 2020)
